Measurements published in patent publication US7223792B2, “Cytotoxic annonaceous acetogenins from Annona muricata” (Advpharma Inc., priority 2001, dated 2007).
Converted amounts (≈) assume the structure as drawn. Like-named read-outs stand apart in the source and are kept apart here.

Columns and labels:
[1] = tested on: 2,2,15; assay: three days cytotoxicity bioassay against 2,2,15; assay type: cell-based, human; conditions: for IC50: 72 h, read-out: Cytotoxicity IC50 2,2,15
Source text: Adriamycin was used as a standard.

[2] = tested on: Hep G2; assay: three days cytotoxicity bioassay against Hep G2; conditions: for IC50: Homo sapiens, HepG2, 72 h, read-out: Cytotoxicity IC50 Hep G2; for Cytotoxicity IC50 Hep G2: human hepatoma cell line Hep G2, three days bioassay
[3] = human hepatoma cell line 2,2,15, three days bioassay

Molecule | IC50 [2] | Cytotoxicity IC50 2,2,15 [1, 3] | Cytotoxicity IC50 Hep G2 [2] | further results
CCCCCCCCCCCCCC[C@@H](O)[C@H]1CC[C@H]([C@H](O)CC[C@H](O)CCCCCCCC2=C[C@H](C)OC2=O)O1 [Longifolicin (10), Longifolicin, reference compound] | 0.000404 µg/mL (≈ 0.000695 µM) | – | – | IC50 [1, 3]: 0.0049 µg/mL (≈ 0.00844 µM)
Corossolin [Corossolin (11), reference compound] | – | 0.234 µg/mL | – | –
COc1cccc2c1C(=O)c1c(O)c3c(c(O)c1C2=O)C[C@@](O)(C(=O)CO)C[C@@H]3O[C@H]1C[C@H](N)[C@H](O)[C@H](C)O1 [Adriamycin, reference compound] | 0.241 µg/mL (≈ 0.443 µM) | – | – | IC50 [1, 3]: 0.45 µg/mL (≈ 0.828 µM)
CCCCCCCC(O)C(O)CC[C@H](O)[C@@H]1CC[C@@H](CCCCCCCCCC[C@@H](O)CC2=C[C@H](C)OC2=O)O1 (some centres unmarked) [Muricin D (4), Muricin D] | – | 0.048 µg/mL | 0.00066 µg/mL | –
CCCCCC(O)C(O)CCCCCC[C@@H](O)[C@H]1CC[C@H](CCCCCCCCCC[C@@H](O)CC2=C[C@H](C)OC2=O)O1 (some centres unmarked) [Muricin A (1), Muricin A] | – | 0.00513 µg/mL | 5.04 µg/mL | times more potent than muricin B against Hep G2 ([2]; muricin A (4R-OH) compared with muricin B (4S-OH), Hep G2): 2.5 times
CCCCC(O)C(O)C/C=C\CC[C@H](O)[C@@H]1CC[C@@H](CCCCCCCCCCCC[C@@H](O)CC2=C[C@H](C)OC2=O)O1 (some centres unmarked) [Muricin F (6), Muricin F] | – | 0.00386 µg/mL | 0.0428 µg/mL | cytotoxicity compared with muricin C against 2,2,15 ([1]; comparison in words, 2,2,15): more cytotoxic than muricin C; cytotoxicity compared with muricin C against Hep G2 ([2]; comparison in words, Hep G2): more cytotoxic than muricin C
CCCCCC(O)C(O)CCCCCC[C@H](O)[C@@H]1CC[C@H](CCCCCCCCCC[C@H](O)CC2=C[C@H](C)OC2=O)O1 (some centres unmarked) [Muricin B (2), Muricin B] | – | 0.00429 µg/mL | 1.78 µg/mL | –
CCCCCCCC(O)C(O)CC[C@H](O)[C@@H]1CC[C@H](CCCCCCCCCCCC[C@@H](O)CC2=C[C@H](C)OC2=O)O1 (some centres unmarked) [Muricin C (3), Muricin C] | – | 0.00387 µg/mL | 0.499 µg/mL | –
CCCCCCCCCCCC[C@@H](O)[C@H]1CC[C@@H]([C@@H](O)CCCCC(=O)CCCCCCCC2=C[C@H](C)OC2=O)O1 [Corossolone (12), Corossolone, reference compound] | 0.48 µg/mL (≈ 0.829 µM) | – | – | IC50 ([1]; Homo sapiens): 0.284 µg/mL (≈ 0.491 µM)
